Usually IC50 stands for the concentration needed to halve the response being measured.

KRas G12C, sequence (P01116 1-188 isoform P01116-2 G12C): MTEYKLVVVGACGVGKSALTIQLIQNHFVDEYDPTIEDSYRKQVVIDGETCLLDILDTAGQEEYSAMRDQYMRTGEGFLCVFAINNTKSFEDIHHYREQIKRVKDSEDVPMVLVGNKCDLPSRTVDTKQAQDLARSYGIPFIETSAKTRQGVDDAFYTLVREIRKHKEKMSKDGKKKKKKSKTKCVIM

For this assay, the target named is KRas G12C (Homo sapiens, UniProt P01116, G12C). In words: Cellular inhibition of KRas G12C measured by Phospho-ERK in NCI-H358 cells. Particulars: pERK(Thr202/Tyr204) normalized with GAPDH, NCI-H358 cells, 3 hours; read-out: IC50. The class given is cell-based. In outline:
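NCI-H358 cells were allowed to attach for 8-12 hours, then exposed to compounds for 3 hours at 0.5% DMSO final. After formaldehyde fixation and methanol permeabilization, phospho-ERK (Thr202/Tyr204) was detected by in-cell immunofluorescence and normalized to GAPDH; IC50 came from a 4-parameter fit of percent-of-DMSO values.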
`C=CC(=O)N1CCN(c2nc(OCCCO)nc3c2CCN(c2cc(O)cc4ccccc24)C3)CC1` [Example 184, 1-[4-[7-(3-hydroxy-1-naphthyl)-2-(3-hydroxypropoxy)-6,8-dihydro-5H-pyrido[3,4-d]pyrimidin-4-yl]piperazin-1-yl]prop-2-en-1-one]: the IC50 is > 1000 nM. As for `C=CC(=O)N1CCN(c2nc(OC[C@@H]3CCCN3C)nc3c2CCN(c2ccccc2CC(F)(F)F)C3)CC1CC#N` (stereo partly drawn) [Example 374, 2-(1-acryloyl-4-(2-(((S)-1-methylpyrrolidin-2-yl)methoxy)-7-(2-(2,2,2-trifluoroethyl)phenyl)-5,6,7,8-tetrahydropyrido[3,4-d]pyrimidin-4-yl)piperazin-2-yl)acetonitrile], the figure is > 1000 nM; as for `C=CC(=O)N1CCN(c2nc(OCCN(C)CCOC)nc3c2CCN(c2cc(O)cc4ccccc24)C3)CC1` [Example 107, 1-(4-(7-(3-hydroxynaphthalen-1-yl)-2-(2-((2-methoxyethyl)(methyl)amino)ethoxy)-5,6,7,8-tetrahydropyrido[3,4-d]pyrimidin-4-yl)piperazin-1-yl)prop-2-en-1-one], > 1000 nM. For `C=CC(=O)N1CCN(c2nc(OC[C@@H]3C[C@@H](F)CN3C)nc3c2CCN(c2cccc4ccccc24)C3)C[C@@H]1CC#N` [Example 306, 2-((S)-1-acryloyl-4-(2-(((2S,4R)-4-fluoro-1-methylpyrrolidin-2-yl)methoxy)-7-(naphthalen-1-yl)-5,6,7,8-tetrahydropyrido[3,4-d]pyrimidin-4-yl)piperazin-2-yl)acetonitrile], the IC50 fell in the range of 0.1 to 1000 nM. As for `C=CC(=O)N1CCN(c2nc(O[C@H](C)CN(C)C)nc3c2CCN(c2cccc4ccccc24)C3)CC1CC#N` (stereo partly drawn) [Example 151, 2-(1-acryloyl-4-(2-(((R)-1-(dimethylamino)propan-2-yl)oxy)-7-(naphthalen-1-yl)-5,6,7,8-tetrahydropyrido[3,4-d]pyrimidin-4-yl)piperazin-2-yl)acetonitrile], the figure is > 1000 nM.

On to `C=CC(=O)N1CCN(c2nc(OC[C@@H]3CCCN3C)nc3c2CCN(c2cccc(F)c2C(F)(F)F)C3)C[C@@H]1CC#N` [Example 328], for which the IC50 was in the range of 0.1 to 1000 nM.

Regarding `C=CC(=O)N1CCN(c2nc(OCCN3CCC(F)(F)CC3)nc3c2CCN(c2cc(O)cc4ccccc24)C3)CC1` [Example 109], the IC50 is > 1000 nM. For `C=CC(=O)N1CCN(c2nc(OC[C@@H]3CCCN3C)nc3c2CCN(c2cccc4ccccc24)C3)C[C@@H]1CCOC` [Example 433, 1-((S)-2-(2-methoxyethyl)-4-(2-(((S)-1-methylpyrrolidin-2-yl)methoxy)-7-(naphthalen-1-yl)-5,6,7,8-tetrahydropyrido[3,4-d]pyrimidin-4-yl)piperazin-1-yl)prop-2-en-1-one], the IC50 was > 1000 nM. Take `C=CC(=O)N1CCN(c2nc(OCCN3CCC(OC)CC3)nc3c2CCN(c2cc(O)cc4ccccc24)C3)CC1` [Example 108, 1-(4-(7-(3-hydroxynaphthalen-1-yl)-2-(2-(4-methoxypiperidin-1-yl)ethoxy)-5,6,7,8-tetrahydropyrido[3,4-d]pyrimidin-4-yl)piperazin-1-yl)prop-2-en-1-one]: the IC50 was 0.1 to 1000 nM.

In the case of `C=CC(=O)N1C[C@H]2CC[C@@H](C1)N2c1nc(OC(C)CN(C)C)nc2c1CCN(c1cc(O)cc3ccccc13)C2` (stereo partly drawn) [Example 46, 1-((1R,5S)-8-(2-((1-(dimethylamino)propan-2-yl)oxy)-7-(3-hydroxynaphthalen-1-yl)-5,6,7,8-tetrahydropyrido[3,4-d]pyrimidin-4-yl)-3,8-diazabicyclo[3.2.1]octan-3-yl)prop-2-en-1-one], the IC50 is > 1000 nM. Take `C=C(F)C(=O)N1CCN(c2nc(OC[C@@H]3C[C@H](C)CN3C)nc3c2CCN(c2cccc4cccc(C)c24)C3)C[C@@H]1CC#N` [Example 616, 2-[(2S)-4-[2-[[(2S,4S)-1,4-dimethylpyrrolidin-2-yl]methoxy]-7-(8-methyl-1-naphthyl)-6,8-dihydro-5H-pyrido[3,4-d]pyrimidin-4-yl]-1-(2-fluoroprop-2-enoyl)piperazin-2-yl]acetonitrile]: the IC50 lay in the range of 0.1 to 1000 nM. With `C=CC(=O)N1CCN(c2nc(OCCN(C)C)nc3c2CCN(c2cc(O)cc4ccccc24)C3)CC1CC#N` (stereo not shown) [Example 170, 2-(1-acryloyl-4-(2-(2-(dimethylamino)ethoxy)-7-(3-hydroxynaphthalen-1-yl)-5,6,7,8-tetrahydropyrido[3,4-d]pyrimidin-4-yl)piperazin-2-yl)acetonitrile], the IC50 lay in the range of 0.1 to 1000 nM.

As to `C=C(F)C(=O)N1CCN(c2nc(OC[C@@H]3CCCN3C)nc3c2CCN(c2cncc4cccc(C)c24)C3)C[C@@H]1CC#N` [Example 619, 2-[(2S)-1-(2-fluoroprop-2-enoyl)-4-[7-(5-methyl-4-isoquinolyl)-2-[[(2S)-1-methylpyrrolidin-2-yl]methoxy]-6,8-dihydro-5H-pyrido[3,4-d]pyrimidin-4-yl]piperazin-2-yl]acetonitrile], the IC50 is 0.1 to 1000 nM. As for `Cc1cccc(N2CCc3c(nc(OC[C@@H]4CCCN4C)nc3N3CCN(C(=O)/C=C/C(F)(F)F)[C@@H](CC#N)C3)C2)c1C` [Example 486, 2-((S)-4-(7-(2,3-dimethylphenyl)-2-(((S)-1-methylpyrrolidin-2-yl)methoxy)-5,6,7,8-tetrahydropyrido[3,4-d]pyrimidin-4-yl)-1-((E)-4,4,4-trifluorobut-2-enoyl)piperazin-2-yl)acetonitrile], the figure is 0.1 to 1000 nM; as for `CN(C)C/C=C/C(=O)N1CCN(c2nc(OC[C@H]3CCCN3C)nc3c2CCN(c2cccc(Cl)c2C(F)(F)F)C3)C[C@@H]1CC#N` [Example 423, 2-((S)-4-(7-(3-chloro-2-(trifluoromethyl)phenyl)-2-(((R)-1-methylpyrrolidin-2-yl)methoxy)-5,6,7,8-tetrahydropyrido[3,4-d]pyrimidin-4-yl)-1-((E)-4-(dimethylamino)but-2-enoyl)piperazin-2-yl)acetonitrile], 0.1 to 1000 nM. As for `C=CC(=O)N1CCN(c2nc(O[C@H](C)CN(C)C)nc3c2CCN(c2cc(O)cc(Cl)c2C(C)C)C3)CC1` [Example 76, (R)-1-(4-(7-(3-chloro-5-hydroxy-2-isopropylphenyl)-2-((1-(dimethylamino)propan-2-yl)oxy)-5,6,7,8-tetrahydropyrido[3,4-d]pyrimidin-4-yl)piperazin-1-yl)prop-2-en-1-one], the IC50 is > 1000 nM.

In the case of `C=CC(=O)N1CCN(c2nc(OCCCN3CCOCC3)nc3c2CCN(c2cc(O)ccc2C)C3)CC1` [Example 105, 1-(4-(7-(5-hydroxy-2-methylphenyl)-2-(3-morpholinopropoxy)-5,6,7,8-tetrahydropyrido[3,4-d]pyrimidin-4-yl)piperazin-1-yl)prop-2-en-1-one], the IC50 is > 1000 nM. As for `C=C(F)C(=O)N1CCN(c2nc(OC[C@@H]3CCCN3C)nc3c2CCN(c2c(C)c(C)cc4[nH]ncc24)C3)C[C@@H]1CC#N` [Example 521, 2-[(2S)-4-[7-(5,6-dimethyl-1H-indazol-4-yl)-2-[[(2S)-1-methylpyrrolidin-2-yl]methoxy]-6,8-dihydro-5H-pyrido[3,4-d]pyrimidin-4-yl]-1-(2-fluoroprop-2-enoyl)piperazin-2-yl]acetonitrile], the figure is 0.1 to 1000 nM; as for `C=CC(=O)N1CCN(c2nc(OC[C@H]3CCCN3C)nc3c2CCN(c2cc(O)cc4ccccc24)C3)C[C@@H]1CC#N` [Example 344, 2-[(2S)-4-[7-(3-hydroxy-1-naphthyl)-2-[[(2R)-1-methylpyrrolidin-2-yl]methoxy]-6,8-dihydro-5H-pyrido[3,4-d]pyrimidin-4-yl]-1-prop-2-enoyl-piperazin-2-yl]acetonitrile], 0.1 to 1000 nM; as for `C=CC(=O)N1CCN(c2nc(OCCCN3CCOCC3)nc3c2CCN(c2ccc(O)cc2OC(F)(F)F)C3)CC1` [Example 106, 1-(4-(7-(4-hydroxy-2-(trifluoromethoxy)phenyl)-2-(3-morpholinopropoxy)-5,6,7,8-tetrahydropyrido[3,4-d]pyrimidin-4-yl)piperazin-1-yl)prop-2-en-1-one], > 1000 nM. As for `C=CC(=O)N1CCN(c2nc(OC[C@@H]3CCCN3C)nc3c2CCN(c2cccc(F)c2C)C3)C[C@@H]1CC#N` [Example 388, 2-((S)-1-acryloyl-4-(7-(3-fluoro-2-methylphenyl)-2-(((S)-1-methylpyrrolidin-2-yl)methoxy)-5,6,7,8-tetrahydropyrido[3,4-d]pyrimidin-4-yl)piperazin-2-yl)acetonitrile], the figure is 0.1 to 1000 nM; as for `C=CC(=O)N1CCN(c2nc(OCC(C)(C)N(C)C)nc3c2CCN(c2cccc4ccccc24)C3)CC1CC#N` (stereo not shown) [Example 397, 2-(1-acryloyl-4-(2-(2-(dimethylamino)-2-methylpropoxy)-7-(naphthalen-1-yl)-5,6,7,8-tetrahydropyrido[3,4-d]pyrimidin-4-yl)piperazin-2-yl)acetonitrile], 0.1 to 1000 nM. As for `C=CC(=O)N1CCN(c2nc(OC3CCN(C)C3)nc3c2CCN(c2cc(O)cc4ccccc24)C3)CC1` (stereo not shown) [Example 23, 1-(4-(7-(3-hydroxynaphthalen-1-yl)-2-((1-methylpyrrolidin-3-yl)oxy)-5,6,7,8-tetrahydropyrido[3,4-d]pyrimidin-4-yl)piperazin-1-yl)prop-2-en-1-one], the figure is > 1000 nM. `CN(C)C/C=C/C(=O)N1CCN(c2nc(OC[C@@H]3C[C@@H](O)CN3C)nc3c2CCN(c2cccc(F)c2C(F)(F)F)C3)C[C@@H]1CC#N` [Example 342, 2-[(2S)-1-[(E)-4-(dimethylamino)but-2-enoyl]-4-[7-[3-fluoro-2-(trifluoromethyl)phenyl]-2-[[(2S,4R)-4-hydroxy-1-methyl-pyrrolidin-2-yl]methoxy]-6,8-dihydro-5H-pyrido[3,4-d]pyrimidin-4-yl]piperazin-2-yl]acetonitrile]: the IC50 was 0.1 to 1000 nM. The result for `C=CC(=O)N1CCN(c2nc(OCCCN3CCOCC3)nc3c2CCN(c2cc(O)ccc2F)C3)CC1` [Example 42, 1-(4-(7-(2-fluoro-5-hydroxyphenyl)-2-(3-morpholinopropoxy)-5,6,7,8-tetrahydropyrido[3,4-d]pyrimidin-4-yl)piperazin-1-yl)prop-2-en-1-one] reads > 1000 nM.

For the origin of these results see patent US10689377B2 (Mirati Therapeutics, Inc., priority 2017, dated 2020).
